US20240350511A1, “TREATMENT OF COVID-19” (priority 2021, published 2024)
Like-named read-outs stand apart in the source and are kept apart here.

Tests used:
[1] = Aggregation study: UV-Vis spectra before and after 0.22 μm filtration; assay type: physicochemical; details: DMSO stock diluted with saline, 4 hours at room temperature, 0.22 μm disc filter
Method: The drug concentration was […]. The sample was left for 4 hours at room temperature. UV-visible absorbance spectra of the solution before and after filtration (employing a 0.22 μm disc filter) were measured.
The formulations were placed in an ultrasonic bath at elevated temperature (40° C.) for 6 hours. After cooling to room temperature, UV-Vis spectra were measured for unfiltered solutions as well as for the solutions after filtration using a 0.22 μm disc filter.

[2] = Dissolved fraction in gamma-cyclodextrin solution, filtered vs unfiltered absorbance at 300 nm; assay type: physicochemical; details: for bazedoxifene acetate dissolved: sonicated at 40° C. for 6 hours
Method: 1.2 mL of a 40 mg/mL solution of GCD in distilled water was added into the microtube. The solution was sonicated at 40° C. for 6 hours. […] The concentration of GCD remained the same in all solutions, specifically 40 mg/mL.
Aliquots of the solutions were filtered through a 0.22 μm disc filter.
1.5 mL of a 40 mg/mL solution of gamma-cyclodextrin in saline was added into the microtube. The solution was sonicated at 40° C. for 6 hours. […] The concentration of gamma-cyclodextrin remained the same in all solutions, specifically 40 mg/mL.
1.2 mL of a 40 mg/mL solution of GCD in phosphate-buffered saline was added into the microtube. The solution was sonicated at 40° C. for 6 hours. […] The concentration of GCD remained the same in all solutions, specifically. 40 mg/ml.
The resulting mixture was ground for 20 minutes at a set grinding speed of 1000 rpm and a grinding temperature of 37° C.
20 mg of the ground mixture was weighed into a microtube and combined with 0.5 mL distilled water. The sample was then sonicated for 5 minutes at 45° C.
An aliquot of the sonicated solution was filtered through a 0.22 μm disc filter.

[3] = rats, bazedoxifene acetate in SBECD
[4] = healthy volunteers, inhalation of BAZE-X1 1.13 mg
clinical = details: both, human, in vivo, inhaled or intranasal, 1.13 mg

SMILES | absorbance features of the drug after filtration (aggregation) [1] | bazedoxifene acetate dissolved ([2]; 40 mg/mL GCD in distilled water) | bazedoxifene acetate dissolved ([2]; 40 mg/mL GCD in phosphate-buffered saline) | bazedoxifene acetate dissolved ([2]; 40 mg/mL gamma-cyclodextrin in saline) | starting bazedoxifene dissolved ([2]; mixture ground with GCD (50 mg:250 mg), 20 mg in 0.5 mL distilled water, sonicated 5 minutes at 45° C.) | pathological lesions in the lungs and trachea ([3]; single intranasal 0.5 mg/kg) | pathological lesions in the lungs and trachea ([3]; single intravenous 0.5 mg/kg) | plasma levels (pg/mL) and AUC values (h·pg/mL) [4] | time to maximum plasma concentration ([4]; first measurement) | half-life (clinical)
Cc1c(-c2ccc(O)cc2)n(Cc2ccc(OCCN3CCCCCC3)cc2)c2ccc(O)cc12 [bazedoxifene acetate] | sharp decrease in absorbance features | 97% | 95% | 92% |  |  |  |  |  | 
Cc1c(-c2ccc(O)cc2)n(Cc2ccc(OCCN3CCCCCC3)cc2)c2ccc(O)cc12 [bazedoxifene] |  |  |  |  | 99% | did not cause pathological lesions | did not cause pathological lesions | very low, in majority near the limit of quantitation | 10 min | 21 h
